{
  "source": "PubChem BioAssay AID1259411",
  "about": "(Chemical Carcinogenesis Research Information System (CCRIS), 2018)",
  "test_system": "rodent carcinogenicity bioassays, tumor incidence",
  "assay": "CCRIS carcinogenicity studies",
  "procedure,_shortened": "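NCI-built, expert-reviewed records of carcinogenicity and related test outcomes (mutagenicity, tumor promotion/inhibition) compiled from published and report sources, historical span 1985-2011, not updated.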",
  "note": "Calls of active or inactive are those of the source. The rule behind the calls is not given here.",
  "data": [
    {"smiles": "O=c1ccc2ccccc2o1", "values": [
      {"measurement": "carcinogen call", "setting": "Species: MOUSE, Strain/Sex: B6C3F1/FEMALE, Route: GAVAGE, Dose: 0, 50, 100, 200 MG/KG BW IN CORN OIL 1/D 5 D/WK FOR 103 WK (STUDY DURATION: 103 WK), Dose: 0, 50, 100, 200 MG/KG BW IN CORN OIL 1/D 5 D/WK FOR 103 WK (STUDY DURATION: 103 WK), Tumor Site: Type of Lesion: LIVER: HEPATOCELLULAR ADENOMA, HEPATOCELLULAR ADENOMA OR CARCINOMA, LUNG: ALVEOLAR/BRONCHIOLAR ADENOMA, ALVEOLAR/BRONCHI", "value": "active; positive"},
      {"measurement": "carcinogen call", "setting": "Species: MOUSE, Strain/Sex: B6C3F1/MALE, Route: GAVAGE, Dose: 0, 50, 100, 200 MG/KG BW IN CORN OIL 1/D 5 D/WK FOR 103 WK (STUDY DURATION: 103 WK), Dose: 0, 50, 100, 200 MG/KG BW IN CORN OIL 1/D 5 D/WK FOR 103 WK (STUDY DURATION: 103 WK), Tumor Site: Type of Lesion: LUNG: ALVEOLAR/BRONCHIOLAR ADENOMA, ALVEOLAR/BRONCHIOLAR ADENOMA OR CARCINOMA", "value": "active; positive"},
      {"measurement": "carcinogen call", "setting": "Species: MOUSE, Strain/Sex: CD-1/FEMALE, Route: ORAL, Dose: 0, 300, 1000, 3000 PPM IN DIET FOR THE DURATION OF STUDY (STUDY DURATION: 109 WK), Dose: 0, 300, 1000, 3000 PPM IN DIET FOR THE DURATION OF STUDY (STUDY DURATION: 109 WK)", "value": "inactive; negative"},
      {"measurement": "carcinogen call", "setting": "Species: MOUSE, Strain/Sex: CD-1/MALE, Route: ORAL, Dose: 0, 300, 1000, 3000 PPM IN DIET FOR THE DURATION OF STUDY (STUDY DURATION: 101 WK), Dose: 0, 300, 1000, 3000 PPM IN DIET FOR THE DURATION OF STUDY (STUDY DURATION: 101 WK)", "value": "inactive; negative"},
      {"measurement": "carcinogen call", "setting": "Species: RAT, Route: ORAL, Tumor Site: Type of Lesion: BILE DUCT", "value": "active; positive"},
      {"measurement": "carcinogen call", "setting": "Species: RAT, Strain/Sex: F344/FEMALE, Route: GAVAGE, Dose: 0, 25, 50, 100 MG/KG BW IN CORN OIL 1/D 5 D/WK FOR 103 WK (STUDY DURATION: 103 WK), Dose: 0, 25, 50, 100 MG/KG BW IN CORN OIL 1/D 5 D/WK FOR 103 WK (STUDY DURATION: 103 WK), Tumor Site: Type of Lesion: KIDNEY (RENAL TUBULE): ADENOMA", "value": "equivocal"},
      {"measurement": "carcinogen call", "setting": "Species: RAT, Strain/Sex: F344/MALE, Route: GAVAGE, Dose: 0, 25, 50, 100 MG/KG BW IN CORN OIL 1/D 5 D/WK FOR 103 WK (STUDY DURATION: 103 WK), Dose: 0, 25, 50, 100 MG/KG BW IN CORN OIL 1/D 5 D/WK FOR 103 WK (STUDY DURATION: 103 WK), Tumor Site: Type of Lesion: KIDNEY (RENAL TUBULE): ADENOMA", "value": "active; positive"},
      {"measurement": "carcinogen call", "setting": "Species: RAT, Strain/Sex: SPRAGUE-DAWLEY/FEMALE, Route: ORAL, Dose: 0, 333, 1000, 2000 PPM IN DIET FOR DURATION OF STUDY ADMINISTERED TO RATS EXPOSED TO THE SAME DOSES DURING GESTATION AND, Dose: 0, 333, 1000, 2000 PPM IN DIET FOR DURATION OF STUDY ADMINISTERED TO RATS EXPOSED TO THE SAME DOSES DURING GESTATION AND, Tumor Site: Type of Lesion: LIVER: CHOLANGIOCARCINOMA, PARENCHYMAL TUMORS", "value": "active; positive"},
      {"measurement": "carcinogen call", "setting": "Species: RAT, Strain/Sex: SPRAGUE-DAWLEY/MALE, Route: ORAL, Dose: 0, 333, 1000, 2000 PPM IN DIET FOR DURATION OF STUDY ADMINISTERED TO RATS EXPOSED TO THE SAME DOSES DURING GESTATION AND, Dose: 0, 333, 1000, 2000 PPM IN DIET FOR DURATION OF STUDY ADMINISTERED TO RATS EXPOSED TO THE SAME DOSES DURING GESTATION AND, Tumor Site: Type of Lesion: LIVER: CHOLANGIOCARCINOMA, PARENCHYMAL TUMORS", "value": "active; positive"}
    ]},
    {"smiles": "O=C(O)c1cc(Oc2ccc(C(F)(F)F)cc2Cl)ccc1[N+](=O)[O-]", "values": [
      {"measurement": "carcinogen call", "setting": "Species: MOUSE, Strain/Sex: B6C3F1/FEMALE, Route: ORAL, Dose: 0, 625, 1250, 2500 PPM IN DIET FOR 18 MO (STUDY DURATION: 18 MO), Dose: 0, 625, 1250, 2500 PPM IN DIET FOR 18 MO (STUDY DURATION: 18 MO), Tumor Site: Type of Lesion: LIVER: ADENOMA, CARCINOMA, STOMACH: PAPILLOMA", "value": "active; positive"},
      {"measurement": "carcinogen call", "setting": "Species: MOUSE, Strain/Sex: B6C3F1/MALE, Route: ORAL, Dose: 0, 625, 1250, 2500 PPM IN DIET FOR 18 MO (STUDY DURATION: 18 MO), Dose: 0, 625, 1250, 2500 PPM IN DIET FOR 18 MO (STUDY DURATION: 18 MO), Tumor Site: Type of Lesion: LIVER: ADENOMA, CARCINOMA, STOMACH: PAPILLOMA", "value": "active; positive"},
      {"measurement": "carcinogen call", "setting": "Species: MOUSE, Strain/Sex: CR-CD-1/FEMALE, Route: ORAL, Dose: 0, 7.5, 4.5, 270 PPM IN DIET FOR 24 MO (STUDY DURATION: 24 MO), Dose: 0, 7.5, 4.5, 270 PPM IN DIET FOR 24 MO (STUDY DURATION: 24 MO), Tumor Site: Type of Lesion: LIVER: ADENOMA OR CARCINOMA", "value": "active; positive"},
      {"measurement": "carcinogen call", "setting": "Species: MOUSE, Strain/Sex: CR-CD-1/MALE, Route: ORAL, Dose: 0, 7.5, 4.5, 270 PPM IN DIET FOR 24 MO (STUDY DURATION: 24 MO), Dose: 0, 7.5, 4.5, 270 PPM IN DIET FOR 24 MO (STUDY DURATION: 24 MO), Tumor Site: Type of Lesion: LIVER: ADENOMA OR CARCINOMA", "value": "active; positive"},
      {"measurement": "carcinogen call", "setting": "Species: RAT, Strain/Sex: F344/MALE, FEMALE, Route: ORAL, Dose: 0, 25, 150, 500, 2500, 5000 PPM IN DIET FOR 2 YR (STUDY DURATION: 2 YR), Dose: 0, 25, 150, 500, 2500, 5000 PPM IN DIET FOR 2 YR (STUDY DURATION: 2 YR)", "value": "inactive; negative"}
    ]},
    {"smiles": "CN(C)CCC(c1ccc(Cl)cc1)c1ccccn1", "note": "(centres undefined)", "values": [
      {"measurement": "carcinogen call", "setting": "Species: MOUSE, Strain/Sex: B6C3F1/FEMALE, Route: GAVAGE, Dose: 0, 100, 200 MG/KG IN DEIONIZED WATER 5 D/WK FOR 103 WK, Dose: 0, 100, 200 MG/KG IN DEIONIZED WATER 5 D/WK FOR 103 WK", "value": "inactive; negative"},
      {"measurement": "carcinogen call", "setting": "Species: MOUSE, Strain/Sex: B6C3F1/MALE, Route: GAVAGE, Dose: 0, 25, 50 MG/KG IN DEIONIZED WATER 5 D/WK FOR 103 WK, Dose: 0, 25, 50 MG/KG IN DEIONIZED WATER 5 D/WK FOR 103 WK", "value": "inactive; negative"},
      {"measurement": "carcinogen call", "setting": "Species: RAT, Strain/Sex: F344/FEMALE, Route: GAVAGE, Dose: 0, 30, 60 MG/KG IN DEIONIZED WATER 5 D/WK FOR 103 WK, Dose: 0, 30, 60 MG/KG IN DEIONIZED WATER 5 D/WK FOR 103 WK", "value": "inactive; negative"},
      {"measurement": "carcinogen call", "setting": "Species: RAT, Strain/Sex: F344/FEMALE, Route: ORAL, Dose: 0, 1000 PPM IN DIET FOR 106 WK (STUDY DURATION: 130 WK)", "value": "inactive; negative"},
      {"measurement": "carcinogen call", "setting": "Species: RAT, Strain/Sex: F344/MALE, Route: GAVAGE, Dose: 0, 15, 30 MG/KG IN DEIONIZED WATER 5 D/WK FOR 103 WK, Dose: 0, 15, 30 MG/KG IN DEIONIZED WATER 5 D/WK FOR 103 WK", "value": "inactive; negative"},
      {"measurement": "carcinogen call", "setting": "Species: RAT, Strain/Sex: F344/MALE, Route: ORAL, Dose: 0, 1000 PPM IN DIET FOR 106 WK (STUDY DURATION: 130 WK)", "value": "inactive; negative"}
    ]},
    {"smiles": "Cc1c2c(c(C)c3c1ccc1ccccc13)CCCC2", "values": [
      {"measurement": "carcinogen call", "setting": "Species: MOUSE, Strain/Sex: SWISS/FEMALE, Route: DERMAL, Dose: 0, 41 UG IN ACETONE (0.2%) 2/WK FOR 65 WK FOR A TOTAL DOSE OF 0, 5.3 MG (STUDY DURATION: 80 WK), Dose: 0, 41 UG IN ACETONE (0.2%) 2/WK FOR 65 WK FOR A TOTAL DOSE OF 0, 5.3 MG (STUDY DURATION: 80 WK), Tumor Site: Type of Lesion: SKIN: CARCINOMA, SKIN: PAPILLOMA", "value": "active; positive"}
    ]},
    {"smiles": "c1ccc2c(c1)-c1ccc3ccc4cccc5cc-2c1c3c45", "values": [
      {"measurement": "carcinogen call", "setting": "Species: MOUSE, Strain/Sex: ICR/FEMALE, Route: DERMAL, Tumor Site: Type of Lesion: INTEGUMENTARY SYSTEM (SKIN): PAPILLOMA, CARCINOMA", "value": "active; positive"},
      {"measurement": "carcinogen call", "setting": "Species: MOUSE, Strain/Sex: XVII-NC/Z/MALE, Route: SUBCUTANEOUS, Tumor Site: Type of Lesion: INJECTION SITE: SARCOMA", "value": "active; positive"},
      {"measurement": "carcinogen call", "setting": "Species: RAT, Strain/Sex: OSBORNE-MENDEL/FEMALE, Route: LUNG IMPLANT, Dose: 0, 0.16, 0.83, 4.15 MG IN BEESWAX/TRIOCTANOIN (STUDY DURATION: LIFETIME), Dose: 0, 0.16, 0.83, 4.15 MG IN BEESWAX/TRIOCTANOIN (STUDY DURATION: LIFETIME), Tumor Site: Type of Lesion: LUNG: EPIDERMOID CARCINOMA", "value": "active; positive"}
    ]}
  ]
}
